# Measurements taken from the NIST ThermoML archive (doi:10.1016/j.jct.2015.07.039).
# Numbers after ± are expanded uncertainties.
# Tests used:
# [1] = 298.15 K; 101.33 kPa; Liquid; Vibrating tube method
# [2] = refractive index (Na D-line) (dimensionless); details: 298.15 K; 101.33 kPa; Liquid; Standard Abbe refractometry
compound,measurement,setting,value
CCCCl [1-chloropropane],mass density,[1],883.81 ± 0.16 kg/m3
same,refractive index,[2],1.38526 ± 0.00032
